# US6770649B2, “1-[1-(hetero)aryl-1-perhydroxyalkylmethyl]-piperazine compounds, process for their preparation and pharmaceutical compositions containing them” (Solvay Pharmaceuticals GmbH, priority 2001, dated 2004)
# Where two headings read alike, the source gives them in different places.
# Key:
# human NK-2 receptor = target: T1, human NK-2 receptor (Homo sapiens, UniProt P21452); assay: Binding power of the test substances to NK-2 receptors in vitro ([3H]-SR 48968 displacement, CHO cell membranes); settings: displacement of [3H]-SR 48968, 90 min incubation, average of at least three measurements, 10^-6 to 10^-10 mol/l, read-out: pKi, affinity to human NK-2 receptors (converted)
# T1 construct: expressed in transfected cells; host or cells: CHO cells (membrane preparation)
# T1 sequence (P21452 1-398): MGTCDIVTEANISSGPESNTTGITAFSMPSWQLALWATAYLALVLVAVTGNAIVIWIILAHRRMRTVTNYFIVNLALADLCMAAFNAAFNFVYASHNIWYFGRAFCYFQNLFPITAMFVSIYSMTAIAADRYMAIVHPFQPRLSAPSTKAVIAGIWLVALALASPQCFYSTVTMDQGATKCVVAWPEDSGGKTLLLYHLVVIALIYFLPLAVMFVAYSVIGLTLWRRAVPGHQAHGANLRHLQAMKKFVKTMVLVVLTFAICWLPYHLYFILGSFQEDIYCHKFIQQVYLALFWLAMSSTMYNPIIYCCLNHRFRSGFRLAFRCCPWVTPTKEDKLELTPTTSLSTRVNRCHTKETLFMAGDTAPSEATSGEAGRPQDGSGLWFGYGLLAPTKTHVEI
# Method: 1. Determination of the Binding Power of the Test Substances to NK-2 Receptors in vitro
# The affinity of the test substances to human NK-2 receptors was measured in vitro. The ability of the test substances to displace the selective NK-2 receptor antagonist SR 48968 (=saredutant) used as reference ligand from its corresponding bond was determined.
# The receptor binding studies were carried out with radioactively marked [^3H]-SR 48968 (from Amersham) as ligand. For the binding test, different samples of a membrane preparation of CHO cells (=[…]), which express the human NK-2 receptor (for preparation, see N. P. Gerard et al., Journal of Biological Chemistry 265/33 (1990) 20455-20462), were incubated for 90 minutes (=min.) with a solution of the marked ligand, with the incubation mixtures containing no test substance or additions of different concentrations of test substance. Then in each case the membrane-bound ligands in the samples were separated from free ligands by filtration. The fraction remaining in the filter was washed several times with buffer solution, before its radioactivity was measured using a liquid scintillation counter. That concentration which effects half-maximum displacement of the bound reference ligand was determined as IC50 of the respective test substance. The inhibition constant (Ki value) of the test substance was calculated from the respective IC50 value, and was stated as the negative logarithmised value thereof (pKi).
# For the compounds of Examples 1 to 39, the affinity to human NK-2 receptors was determined in each case by at least three measurements of the test substances in concentration series of 10^−6 to 10^−10 mol/l. If several measurements were performed, the average thereof was listed each time.
# NK-2 receptors = target: T2, NK-2 receptors (Cavia porcellus, UniProt Q64077); assay: NK-2-receptor-antagonistic effectiveness in vivo in anaesthetised guinea pigs (NKA test stimulus); set-up: species or system guinea pig; settings: for ED50: guinea pig
# T2 construct: the NK-2 receptors present in the gall-bladder preparations; from tissue; host or cells: Pirbright-White guinea pig: isolated gall-bladder (A2); anaesthetised whole animal (A3)
# T2 sequence (Q64077 1-402): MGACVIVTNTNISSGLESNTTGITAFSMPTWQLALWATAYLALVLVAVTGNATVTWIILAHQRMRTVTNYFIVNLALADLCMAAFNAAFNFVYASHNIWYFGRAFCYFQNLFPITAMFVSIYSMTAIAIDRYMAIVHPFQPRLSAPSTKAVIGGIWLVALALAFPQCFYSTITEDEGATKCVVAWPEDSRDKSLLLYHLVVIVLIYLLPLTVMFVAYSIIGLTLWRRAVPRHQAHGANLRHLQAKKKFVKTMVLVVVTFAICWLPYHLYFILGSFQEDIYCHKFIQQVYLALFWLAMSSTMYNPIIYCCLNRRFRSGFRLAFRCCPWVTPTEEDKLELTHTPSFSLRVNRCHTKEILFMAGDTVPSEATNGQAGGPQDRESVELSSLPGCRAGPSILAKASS
# Excerpt: 3. Determination of the NK-2-receptor-antagonistic Effectiveness of the Test Substances in vivo
# The NK-2- and NK-1-antagonistic activities of the test substances were investigated in anaesthetised guinea pigs in each case after intravenous (=i.v.) and oral (=p.o.) administration in vivio. With the present test model it is possible to detect both NK-2-antagonistic effects in three different organ systems (respiratory tracts, colon and circulation) and NK-1-antagonistic effects (rapid drop in blood pressure) in an animal simultaneously.
# Pirbright-White guinea pigs of a body weight of 500-700 g were anaesthetised with ketamine/xylazine (67/13 mg/kg subcutaneously, initial dose, further doses administered as required). The animals were provided with an intravenous catheter in order to administer the substance and an intra-arterial catheter to measure the blood pressure. The animals were artificially ventilated via a tracheal cannula and the respiratory pressure was recorded by means of a pressure transducer. A balloon was introduced into the distal colon of the animals for manometric recording of colon motility by means of a pressure transducer. Blood pressure, heart rate, respiratory pressure and colonic pressure were measured continuously for each animal and plotted on a recorder and by means of a digital data-processing system. Neurokinin A (=NKA; 200 pmol/animal) was administered i.v. as a bolus as a test stimulus to stimulate the NK-1- and the NK-2 receptors. An addition of NKA of this type results in a great increase in respiratory pressure (bronchoconstriction) and colonic pressure, and in a biphasic drop in blood pressure. The first phase of hypotension (=phase of maximum hypotension within the first minute after administration of NKA) is mediated via NK-1 receptors, since they can be blocked completely by specific NK-1 receptor antagonists. The second phase of delayed hypotension (=phase of maximum hypotension after 2-5 min.) on the other hand is mediated via NK-2 receptors, since they can be blocked by specific NK-2 receptor antagonists. The doses of the test substances are given as ED50 values which each result in a response to the NKA test stimulus which is reduced to 50% of the initial value, as characteristic variables for the individual measurement parameters bronchoconstriction, colonic pressure and change in blood pressure mediated by NK-1 or NK-2.
# The antagonistic effects of the test substances were first investigated in cumulative form, the time of the NKA test stimulus being 1 min. after the administration of the respective doses of the test substances had ended. These ED50 values obtained from cumulative dose effect curves are plotted in Table 2 below. In order additionally to detect the variation over time of the antagonistic effects of the test substances, the action of the NKA test stimulus was determined at different times (1, 30, 60, 90, 120, 150 and 180 min.) after administration of the test substances.
Compound,Ki (human NK-2 receptor) [nM],other results
CN(CC(CCN1CCN(C(c2ccsc2)[C@H](O)CO)CC1)c1ccc(Cl)c(Cl)c1)C(=O)c1ccccc1 (mixture of isomers) [Example 8],≤ 10,
CN(CC(CCN1CCN(C(c2ccsc2)[C@@H](O)CO)CC1)c1ccc(Cl)c(Cl)c1)C(=O)c1ccccc1 (mixture of isomers) [Example 11],≤ 10,
CN(CC(CCN1CCN(C(c2ccsc2)[C@H](O)[C@@H](O)CO)CC1)c1ccc(Cl)c(Cl)c1)C(=O)c1ccccc1 (mixture of isomers) [Example 16],≤ 10,
CN(CC(CCN1CCN(C(c2cccs2)[C@@H](O)[C@H](O)[C@H](O)CO)CC1)c1ccc(Cl)c(Cl)c1)C(=O)c1ccccc1 (mixture of isomers) [Example 19],≤ 10,
CN(CC(CCN1CCN(C(c2ccsc2)[C@@H](O)[C@H](O)[C@@H](O)[C@@H](O)CO)CC1)c1ccc(Cl)c(Cl)c1)C(=O)c1ccccc1 (mixture of isomers) [Example 20],≤ 10,
CN(CC(CCN1CCN(C(c2ccsc2)[C@@H](O)[C@@H](O)[C@H](O)[C@H](O)CO)CC1)c1ccc(Cl)c(Cl)c1)C(=O)c1ccccc1 (mixture of isomers) [Example 21],≤ 10,
CN(CC(CCN1CCN(C(c2ccsc2)[C@H](O)[C@@H](O)[C@H](O)[C@H](O)CO)CC1)c1ccc(Cl)c(Cl)c1)C(=O)c1ccccc1 (mixture of isomers) [Example 23],≤ 10,
CN(CC(CCN1CCN(C(c2cccs2)[C@H](O)[C@@H](O)[C@H](O)CO)CC1)c1ccc(Cl)c(Cl)c1)C(=O)c1ccccc1 (mixture of isomers) [Example 24],≤ 10,
CN(CC(CCN1CCN(C(c2ccccc2)[C@H](O)[C@@H](O)[C@H](O)CO)CC1)c1ccc(Cl)c(Cl)c1)C(=O)c1ccccc1 (mixture of isomers) [Example 25],≤ 10,
CN(CC(CCN1CCN(C(c2ccsc2)[C@@H](O)[C@@H](O)[C@@H](O)CO)CC1)c1ccc(Cl)c(Cl)c1)C(=O)c1ccccc1 (mixture of isomers) [Example 27],≤ 10,
"CN(C[C@@H](CCN1CCN(C(c2ccco2)[C@H](O)CO)CC1)c1ccc(Cl)c(Cl)c1)C(=O)c1ccccc1 (stereo partly drawn) [Example 2, N-((2S)-2-(3,4-dichlorophenyl)-4-{4[(2S)-2,3-dihydroxy-1-(2-furyl)propyl]-1-piperazinyl}-butyl)-N-methylbenzamide]",≤ 1,
"CN(C[C@@H](CCN1CCN(C(c2ccco2)[C@H]2COC(=O)O2)CC1)c1ccc(Cl)c(Cl)c1)C(=O)c1ccccc1 (stereo partly drawn) [Example 4, N-[((2S)-2-(3,4)-dichlorophenyl)-4-(4-{2-furyl[(4S)-2-oxo-1,3-dioxolan-4-yl]methyl}-1-piperazinyl)butyl]-N-methylbenzamide]",≤ 1,
CN(C[C@@H](CCN1CCN(C(c2ccsc2)[C@H](O)CO)CC1)c1ccc(Cl)c(Cl)c1)C(=O)c1ccccc1 (stereo partly drawn) [Example 5],≤ 1,"NK-2-receptor-antagonistic activity of colon motility, late drop in blood pressure and respiratory resistance (in words) (NK-2 receptors; cumulative administration i.v., antagonism detected 1 min. after administration had ended): marked NK-2-receptor-antagonistic activity; ED50 (NK-2 receptors; iv, cumulative dosing, NKA stimulus 1 min. after administration, NK-2-mediated late drop in blood pressure, read-out: ED50 Blood pressure, i.v. after 1 min. (cumulative)): 0.13 µmol/kg; ED50 (NK-2 receptors; iv, cumulative dosing, NKA stimulus 1 min. after administration, respiratory resistance (bronchoconstriction), read-out: ED50 Respiratory resistance, i.v. after 1 min. (cumulative)): 0.106 µmol/kg; ED50 (NK-2 receptors; iv, cumulative dosing, NKA stimulus (200 pmol/animal i.v.) 1 min. after administration, colonic pressure, read-out: ED50 Colonic pressure, i.v. after 1 min. (cumulative)): 0.041 µmol/kg; ED50 (NK-2 receptors; iv, from AUC of antagonistic effect over 120 min after administration, colonic pressure, read-out: ED50 Colonic pressure, i.v. AUC over 120 min): 0.014 µmol/kg; ED50 (NK-2 receptors; iv, from AUC over 120 min after administration, NK-2-mediated drop in blood pressure, read-out: ED50 Blood pressure, i.v. AUC over 120 min): 0.004 µmol/kg; ED50 (NK-2 receptors; iv, from AUC over 120 min after administration, respiratory resistance, read-out: ED50 Respiratory resistance, i.v. AUC over 120 min): 0.008 µmol/kg; ED50 (NK-2 receptors; po, from AUC over 180 min after administration, NK-2-mediated drop in blood pressure, read-out: ED50 Blood pressure, p.o. AUC over 180 min.): 7.6 µmol/kg; ED50 (NK-2 receptors; po, from AUC over 180 min after administration, colonic pressure, read-out: ED50 Colonic pressure, p.o. AUC over 180 min.): 3.4 µmol/kg; ED50 (NK-2 receptors; po, from AUC over 180 min after administration, respiratory resistance, read-out: ED50 Respiratory resistance, p.o. AUC over 180 min.): 2.7 µmol/kg"
"CN(C[C@@H](CCN1CCN(C(c2ccoc2)[C@H](O)CO)CC1)c1ccc(Cl)c(Cl)c1)C(=O)c1ccccc1 (stereo partly drawn) [Example 6, N-((2S)-2-(3,4-dichlorophenyl)-4-{4[(2S)-2,3-dihydroxy-1-(3-furyl)propyl]-1-piperazinyl}-butyl)-N-methylbenzamide]",≤ 1,
"CN(C[C@@H](CCN1CCN(C(c2ccco2)[C@H](O)[C@@H](O)[C@H](O)CO)CC1)c1ccc(Cl)c(Cl)c1)C(=O)c1ccccc1 (stereo partly drawn) [Example 10, N-((2S)-2-(3,4-dichlorophenyl)-4-{4[(2S,3R,4R)-2,3,4,5-tetrahydroxy-1-(2-furyl)pentyl]-1-piperazinyl}-butyl)-N-methylbenzamide]",≤ 10,
"CN(C[C@@H](CCN1CCN(C(c2ccsc2)[C@@H](O)[C@H](O)[C@@H](O)CO)CC1)c1ccc(Cl)c(Cl)c1)C(=O)c1ccccc1 (stereo partly drawn) [Example 12, N-((2S)-2-(3,4-dichlorophenyl)-4-{4[(2R,3S,4S)-2,3,4,5-tetrahydroxy-1-(3-thienyl)pentyl]-1-piperazinyl}butyl)-N-methylbenzamide]",≤ 10,
CN(CC(CCN1CCN(C(c2ccsc2)C(O)CO)CC1)c1ccc(Cl)c(Cl)c1)C(=O)c1ccccc1 (stereo not drawn) [Example 18],≤ 10,
CN(CC(CCN1CCN(C(c2cccs2)C(O)CO)CC1)c1ccc(Cl)c(Cl)c1)C(=O)c1ccccc1 (stereo not drawn) [Example 22],≤ 10,
CN(CC(CCN1CCN(C(CO)c2ccsc2)CC1)c1ccc(Cl)c(Cl)c1)C(=O)c1ccccc1 (stereo not drawn) [Example 26],≤ 10,
CN(C[C@@H](CCN1CCN(C(c2ccco2)[C@H]2COC(=S)O2)CC1)c1ccc(Cl)c(Cl)c1)C(=O)c1ccccc1 (stereo partly drawn) [Example 39],≤ 1,
